# Test results as given in the supplement of paper PMC6045584.
# ± gives the standard deviation of the averaged measurements.
# What was measured:
# Experiment in all cases: surviving fraction relative to DMSO-only wells; higher = less growth inhibition
# Details in all cases: exposure time: 5 days
# [1] = compound: O=C(CCCCCCC(=O)Nc1ccccc1)NO [VORINOSTAT]
# In short: (§1)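 After seeding at 250–500 cells per well in 384-well plates and a 24-hour wait, log-phase tumour cell lines were exposed without interruption for five days to inhibitors at 0.5, 1, 5, 10, 50, 100, 500 and 1000 nM. CellTiter-Glo luminescence was recorded after 10 minutes at room temperature. Viability is reported as surviving fraction, the luminescence normalised to the median of DMSO-only wells.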
# [2] = compound: COc1cc2nccc(Oc3ccc(NC(=O)NC4CC4)c(Cl)c3)c2cc1C(N)=O [LENVATINIB]
# In short: as §1
# [3] = compound: Cc1ccc(NC(=O)c2ccc(CN3CCN(C)CC3)cc2)cc1Nc1nccc(-c2cccnc2)n1 [IMATINIB]
# In short: as §1
# [4] = compound: C=CCn1c(=O)c2cnc(Nc3ccc(N4CCN(C)CC4)cc3)nc2n1-c1cccc(C(C)(C)O)n1 [MK-1775]
# In short: as §1
# [5] = compound: COc1cc2nccc(Oc3ccc(NC(=O)C4(C(=O)Nc5ccc(F)cc5)CC4)cc3)c2cc1OC [CABOZANTINIB]
# In short: as §1
# [6] = compound: C[C@@H]1CN(CC(=O)Nc2ccc3c(c2)Cc2cccc(-c4cc(=O)cc(N5CCOCC5)o4)c2S3)C[C@H](C)O1
# In short: as §1
# [7] = compound: Cc1c(N)nc([C@H](CC(N)=O)NC[C@H](N)C(N)=O)nc1C(=O)N[C@H](C(=O)N[C@H](C)[C@@H](O)[C@H](C)C(=O)N[C@H](C(=O)NCCc1nc(-c2nc(C(=O)NCCC[S+](C)C)cs2)cs1)[C@@H](C)O)[C@@H](OC1OC(CO)C(O)C(O)C1OC1OC(CO)C(O)C(OC(N)=O)C1O)c1cnc[nH]1 [BLEOMYCIN]
# In short: as §1
# [8] = compound: Cn1c(=O)n(-c2ccc(C(C)(C)C#N)cc2)c2c3cc(-c4cnc5ccccc5c4)ccc3ncc21 [BEZ-235]
# In short: as §1
# [9] = compound: COc1ccc(-c2cc3c(C)nc(N)nc3n([C@H]3CC[C@H](OCCO)CC3)c2=O)cn1
# In short: as §1
# [10] = compound: Cc1cn(-c2cc(NC(=O)c3ccc(C)c(Nc4nccc(-c5cccnc5)n4)c3)cc(C(F)(F)F)c2)cn1 [NILOTINIB]
# In short: as §1
# [11] = compound: CC/C(=C(\c1ccc(O)cc1)c1ccc(OCCN(C)C)cc1)c1ccccc1 [AFIMOXIFENE]
# In short: as §1
# [12] = compound: CCc1cc(Nc2nccc(-c3c(-c4ccc(OC)c(C(=O)Nc5c(F)cccc5F)c4)nc4ccccn34)n2)c(OC)cc1N1CCC(N2CCN(S(C)(=O)=O)CC2)CC1
# In short: as §1
# [13] = compound: C[C@H](CN(C)C)Oc1nc(Nc2cc3cccc(Cl)c3cn2)cnc1C#N
# In short: as §1
# [14] = compound: Cn1ncnc1[C@H]1c2n[nH]c(=O)c3cc(F)cc(c23)N[C@@H]1c1ccc(F)cc1 [BMN-673]
# In short: as §1
test system,measurement,setting,value
HS57T BREAST,surviving fraction,[1]; 0.5 nM,0.935 ± 0.066
same,surviving fraction,[1]; 1 nM,0.992 ± 0.038
same,surviving fraction,[1]; 5 nM,1.01 ± 0.073
same,surviving fraction,[1]; 10 nM,1.071 ± 0.009
same,surviving fraction,[1]; 50 nM,1.04 ± 0.052
same,surviving fraction,[1]; 100 nM,0.995 ± 0.056
same,surviving fraction,[1]; 500 nM,0.804 ± 0.049
same,surviving fraction,[1]; 1000 nM,0.475 ± 0.026
same,surviving fraction,[2]; 0.5 nM,1.04 ± 0.027
same,surviving fraction,[2]; 1 nM,1.01 ± 0.085
same,surviving fraction,[2]; 5 nM,1.084 ± 0.0086
same,surviving fraction,[2]; 10 nM,1.14 ± 0.049
same,surviving fraction,[2]; 50 nM,1.1 ± 0.042
same,surviving fraction,[2]; 100 nM,1.09 ± 0.064
same,surviving fraction,[2]; 500 nM,0.831 ± 0.029
same,surviving fraction,[2]; 1000 nM,0.74 ± 0.023
same,surviving fraction,[3]; 1 nM,1 ± 0.062
same,surviving fraction,[3]; 5 nM,1.14 ± 0.016
same,surviving fraction,[3]; 10 nM,1.14 ± 0.024
same,surviving fraction,[3]; 50 nM,1.17 ± 0.069
same,surviving fraction,[3]; 100 nM,1.09 ± 0.056
same,surviving fraction,[3]; 500 nM,1.04 ± 0.034
same,surviving fraction,[3]; 1000 nM,1.01 ± 0.093
same,surviving fraction,[4]; 0.5 nM,0.969 ± 0.04
same,surviving fraction,[4]; 1 nM,1.04 ± 0.017
same,surviving fraction,[4]; 5 nM,1.06 ± 0.06
same,surviving fraction,[4]; 10 nM,0.963 ± 0.029
same,surviving fraction,[4]; 50 nM,0.597 ± 0.018
same,surviving fraction,[4]; 100 nM,0.336 ± 0.041
same,surviving fraction,[4]; 500 nM,0.134 ± 0.0042
same,surviving fraction,[4]; 1000 nM,0.098 ± 0.011
same,surviving fraction,[5]; 0.5 nM,0.884 ± 0.062
same,surviving fraction,[5]; 1 nM,0.87 ± 0.07
same,surviving fraction,[5]; 5 nM,0.961 ± 0.024
same,surviving fraction,[5]; 10 nM,0.983 ± 0.04
same,surviving fraction,[5]; 50 nM,1.01 ± 0.037
same,surviving fraction,[5]; 100 nM,0.972 ± 0.078
same,surviving fraction,[5]; 500 nM,0.894 ± 0.066
same,surviving fraction,[5]; 1000 nM,0.888 ± 0.034
same,surviving fraction,[6]; 0.5 nM,1.1 ± 0.058
same,surviving fraction,[6]; 1 nM,1.05 ± 0.055
same,surviving fraction,[6]; 5 nM,1.16 ± 0.017
same,surviving fraction,[6]; 10 nM,1.1 ± 0.03
same,surviving fraction,[6]; 50 nM,1.08 ± 0.042
same,surviving fraction,[6]; 100 nM,1.08 ± 0.084
same,surviving fraction,[6]; 500 nM,0.945 ± 0.069
same,surviving fraction,[6]; 1000 nM,0.87 ± 0.041
same,surviving fraction,[7]; 0.5 nM,0.868 ± 0.026
same,surviving fraction,[7]; 1 nM,0.91 ± 0.11
same,surviving fraction,[7]; 5 nM,0.9263 ± 0.0091
same,surviving fraction,[7]; 10 nM,0.918 ± 0.057
same,surviving fraction,[7]; 50 nM,0.842 ± 0.032
same,surviving fraction,[7]; 100 nM,0.723 ± 0.034
same,surviving fraction,[7]; 500 nM,0.36 ± 0.041
same,surviving fraction,[7]; 1000 nM,0.225 ± 0.0065
same,surviving fraction,[8]; 0.5 nM,1.08 ± 0.039
same,surviving fraction,[8]; 1 nM,1.03 ± 0.033
same,surviving fraction,[8]; 5 nM,0.916 ± 0.027
same,surviving fraction,[8]; 10 nM,0.826 ± 0.016
same,surviving fraction,[8]; 50 nM,0.335 ± 0.021
same,surviving fraction,[8]; 100 nM,0.258 ± 0.0071
same,surviving fraction,[8]; 500 nM,0.186 ± 0.009
same,surviving fraction,[8]; 1000 nM,0.181 ± 0.011
same,surviving fraction,[9]; 0.5 nM,0.946 ± 0.059
same,surviving fraction,[9]; 1 nM,1.01 ± 0.07
same,surviving fraction,[9]; 5 nM,0.959 ± 0.026
same,surviving fraction,[9]; 10 nM,0.939 ± 0.033
same,surviving fraction,[9]; 50 nM,0.6 ± 0.023
same,surviving fraction,[9]; 100 nM,0.429 ± 0.034
same,surviving fraction,[9]; 500 nM,0.148 ± 0.004
same,surviving fraction,[9]; 1000 nM,0.117 ± 0.0076
same,surviving fraction,[10]; 0.5 nM,1.02 ± 0.12
same,surviving fraction,[10]; 1 nM,1.05 ± 0.04
same,surviving fraction,[10]; 5 nM,1.05 ± 0.066
same,surviving fraction,[10]; 10 nM,1.06 ± 0.015
same,surviving fraction,[10]; 50 nM,0.99 ± 0.038
same,surviving fraction,[10]; 100 nM,1.08 ± 0.11
same,surviving fraction,[10]; 500 nM,0.983 ± 0.03
same,surviving fraction,[10]; 1000 nM,0.967 ± 0.064
same,surviving fraction,[11]; 0.5 nM,1.04 ± 0.086
same,surviving fraction,[11]; 1 nM,1.05 ± 0.088
same,surviving fraction,[11]; 5 nM,1.12 ± 0.062
same,surviving fraction,[11]; 10 nM,1.156 ± 0.011
same,surviving fraction,[11]; 50 nM,1.12 ± 0.071
same,surviving fraction,[11]; 100 nM,1.19 ± 0.044
same,surviving fraction,[11]; 500 nM,1.09 ± 0.038
same,surviving fraction,[11]; 1000 nM,1.08 ± 0.057
same,surviving fraction,[12]; 0.5 nM,0.949 ± 0.082
same,surviving fraction,[12]; 1 nM,1.01 ± 0.063
same,surviving fraction,[12]; 5 nM,1.05 ± 0.021
same,surviving fraction,[12]; 10 nM,1.05 ± 0.018
same,surviving fraction,[12]; 50 nM,1.02 ± 0.052
same,surviving fraction,[12]; 100 nM,1.06 ± 0.085
same,surviving fraction,[12]; 500 nM,0.992 ± 0.036
same,surviving fraction,[12]; 1000 nM,0.945 ± 0.024
same,surviving fraction,[13]; 0.5 nM,0.943 ± 0.054
same,surviving fraction,[13]; 1 nM,0.933 ± 0.048
same,surviving fraction,[13]; 5 nM,1.04 ± 0.039
same,surviving fraction,[13]; 10 nM,1.06 ± 0.041
same,surviving fraction,[13]; 50 nM,1.03 ± 0.025
same,surviving fraction,[13]; 100 nM,0.929 ± 0.057
same,surviving fraction,[13]; 500 nM,0.119 ± 0.0095
same,surviving fraction,[13]; 1000 nM,0.0913 ± 0.011
same,surviving fraction,[14]; 0.5 nM,1.04 ± 0.03
same,surviving fraction,[14]; 1 nM,0.984 ± 0.037
same,surviving fraction,[14]; 5 nM,1.04 ± 0.076
same,surviving fraction,[14]; 10 nM,1.03 ± 0.076
same,surviving fraction,[14]; 50 nM,0.969 ± 0.084
same,surviving fraction,[14]; 100 nM,0.82 ± 0.074
same,surviving fraction,[14]; 500 nM,0.619 ± 0.057
same,surviving fraction,[14]; 1000 nM,0.513 ± 0.04
